Among the data in PubChem BioAssay (NCI) are GI50 and TGI values, retold here.

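Protocol summary: plate cells (96-well), add compound at 5 concentrations, incubate 48 h, interpolate endpoints linearly. The concentration for 50% growth inhibition is given as GI50. TGI: concentration producing complete growth inhibition.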

Test in all cases: NCI anticancer screen, dose series, 48 h
The test system of assay [1] is DU-145 prostate.
For assay [2], the system named is MDA-MB-231 breast.
In assay [3] the test system is MDA-MB-435.
For assay [4], the system named is NCI/ADR-RES ovarian.
For assay [5], the system named is T-47D breast.

For the molecule `CCCCCCCCCCN=C(c1ccc(N(C)C)cc1)c1ccc(N(C)C)cc1`, the GI50 in assay [1] is 2.42 µM; in assay [2], 0.876 µM; in assay [3], 0.0726 µM; in assay [4] it was 0.406 µM; in assay [5], 0.6 µM. Besides, the TGI was above 83 µM in assay [1]; 23.9 µM in assay [2]; 0.332 µM in assay [3]; 42.4 µM in assay [4]; above 54 µM in assay [5].
As to `O=C(/C=C/c1ccccc1)CC(c1ccccc1)N1CCOCC1` (stereo unspecified), the GI50 is 3.49 µM in assay [1]; 2.64 µM in assay [2]; 1.91 µM in assay [3]; 3.37 µM in assay [4]; 4.26 µM in assay [5]. Further, the TGI in assay [1] was found to be 10.9 µM; in assay [2], 6.95 µM; in assay [3], 4.58 µM; in assay [4], 16.3 µM; in assay [5] it was 23.5 µM.
Consider `c1ccc2nc3c(cc4ccccn43)nc2c1`, for which the GI50 in assay [1] was above 100 µM; in assay [2] it was 29.8 µM; in assay [3], above 100 µM; in assay [4], above 100 µM; in assay [5], 88.1 µM. The TGI in assay [1], in assay [2], in assay [3], in assay [4] and in assay [5] was above 100 µM each time.
As to `CCCCCCCCCCCCCCCCCCNC(=O)[C@H]1CSC(c2cccs2)N1` (stereo partly specified), the GI50 in assay [1] was 2.91 µM; in assay [2], 0.826 µM; in assay [3], 0.77 µM; in assay [4], 1.06 µM; in assay [5], 0.892 µM. Further, the TGI is above 50 µM in assay [1]; 1.59 µM in assay [2]; 1.53 µM in assay [3]; 2.31 µM in assay [4]; 1.84 µM in assay [5].
For `NC(=O)C1(N2CCCCC2)CCN(CCCC(=O)c2ccc(F)cc2)CC1`, the GI50 in assay [1] is 2.83 µM; in assay [2], 3.56 µM; in assay [3], 0.07 µM; in assay [4], 29 µM; in assay [5] it was above 100 µM. Further, the TGI in assay [1] is above 25.6 µM; in assay [2], above 71.8 µM; in assay [3], 0.396 µM; in assay [4], above 100 µM; in assay [5] it was above 100 µM.
Regarding `Cn1cc(-c2csc(-c3cn(C)c4ccccc34)n2)c2cnccc21`, the GI50 is 2.13 µM in assay [1], 1.47 µM in assay [2], 1.77 µM in assay [3] and 1.83 µM in assay [4]. For the same molecule, the TGI in assay [1] was determined as 4.41 µM; in assay [2], 2.89 µM; in assay [3], 3.24 µM; in assay [4], 4.32 µM.
Take `CCSc1nc(N)c2cn[nH]c2n1`: the GI50 in assay [1] is 46.2 µM; in assay [2], 20.2 µM; in assay [3] it was 30.8 µM; in assay [4], 28.4 µM; in assay [5], 17.6 µM. The TGI in assay [1] was above 100 µM; in assay [2], 69.8 µM; in assay [3], above 100 µM; in assay [4], 85.6 µM; in assay [5], 56.4 µM.
As to `CC1CCCc2c1nn(C(=O)/C=C(\N)c1ccccc1)c2N` (stereo unspecified), the GI50 was 14.5 µM in assay [1]; 28.3 µM in assay [2]; 10.7 µM in assay [3]; 6.03 µM in assay [4]; 3.71 µM in assay [5]. Besides, the TGI was above 100 µM in assay [1]; above 100 µM in assay [2]; 26.5 µM in assay [3]; 39.4 µM in assay [4]; 95.1 µM in assay [5].
With `C[C@H]1[C@H](C)CC[C@]2(C(=O)NCCNCCN)CC[C@]3(C)C(=CC[C@@H]4[C@@]5(C)CCC(=O)C(C)(C)[C@@H]5CC[C@]43C)[C@H]12`, the GI50 in assay [1] was 1.8 µM; in assay [2], 1.66 µM; in assay [3], 1.73 µM; in assay [4], 5.16 µM. Also, the TGI in assay [1] was 3.35 µM; in assay [2] it was 3.08 µM; in assay [3] it was 3.23 µM; in assay [4], 20 µM.
With `Cn1c([N+](=O)[O-])cnc1/C=C1\Oc2cc(Cl)ccc2C1=O`, the GI50 is 0.413 µM in assay [1]; 0.94 µM in assay [2]; 0.26 µM in assay [3]; 0.884 µM in assay [4]; 21.5 µM in assay [5]. Besides, the TGI is 4.51 µM in assay [1]; above 28.5 µM in assay [2]; 1.05 µM in assay [3]; above 100 µM in assay [4]; above 100 µM in assay [5].
Turning to `CCN(CC)CCNC(=O)c1cn2ncnc(Oc3ccc(NC(=O)Nc4ccc(Cl)c(C(F)(F)F)c4)c(F)c3)c2c1C`, the GI50 in assay [1] was 1.72 µM; in assay [2] it was 1.63 µM; in assay [3], 1.57 µM; in assay [4] it was 1.95 µM; in assay [5], 1.83 µM. Moreover, the TGI in assay [1] came out at 3.12 µM; in assay [2], 3.28 µM; in assay [3], 3.02 µM; in assay [4], 3.82 µM; in assay [5] it was 4 µM.
Regarding `O=C(O)CCC(NC(=S)S)C(=O)O.[Na+].[Zn+2]` (stereo unspecified), the GI50 in assay [1], in assay [2], in assay [3], in assay [4] and in assay [5] was above 50 µM each time. Further, the TGI in assay [1], in assay [2], in assay [3], in assay [4] and in assay [5] was above 50 µM in each case.
As for `CNC(=O)c1cc2c(Oc3ccc(NC(=O)C4(C(=O)Nc5ccc(F)cc5)CC4)cc3)ccnc2cc1OC`, the GI50 is 4.06 µM in assay [1]; 2.41 µM in assay [2]; 2.28 µM in assay [3]; 3.56 µM in assay [4]; 2.71 µM in assay [5]. Also, the TGI was above 100 µM in assay [1]; above 100 µM in assay [2]; 6.64 µM in assay [3]; above 100 µM in assay [4]; 16.3 µM in assay [5].
